This is an account of results in patent US20100317642A1, “PHARMACEUTICAL COMPOSITION OF ORLISTAT” (INVENTIS DDS PVT LIMITED, priority 2007, published 2010).

Each structure is given as a SMILES string.

Data set [1] is described as follows: Effect of elevated temperature on appearance and handling properties (hot air oven, Petri dishes). It is filed as physicochemical. Conditions: for Appearance and handling properties at elevated temperature: hot air oven. An excerpt:
The affect of elevated temperature on appearance and handling properties on the orlistat compositions of this invention was studied by slowly increasing the temperature of a hot air oven in which these compositions were kept in Petri dishes. Pure orlistat also was subjected to this study. To carry out a comparison with the innovator's formulation Xenical®, its contents were emptied in a Petri dish. The observations of this study are given below—

For data set [2] the following is noted: within the physiological pH range; cited from earlier work.

With `CCCCCCCCCCC[C@@H](C[C@@H]1OC(=O)[C@H]1CCCCCC)OC(=O)[C@H](CC(C)C)NC=O` [Orlistat, orlistat], the “Appearance and handling properties at elevated temperature” value in data set [1] (30 ° C.) is listed as “No change”; in data set [1] (35 ° C., -do- = same as cell above), “-do-”; in data set [1] (37 ° C., -do- = same as cell above), “softens”; in data set [1] (40 ° C.) it was “Starts melting”; in data set [1] (45 ° C., cells wrap: 'Slightly soft and sticky', 'Melts completely'), “Melts”; in data set [1] (50 ° C., -do- = same as cell above, Xenical cell wraps: 'Slightly soft and sticky, becomes powdery on touching'), “-do-”. Further, the “Appearance and hardness after heating” value in data set [1] (Cooled down to less than 30° C., cells wrap: 'Regains its original hardness', 'Does not retain its original appearance') is recorded as “Does not retain”. For the same compound, the solubility in water result in data set [2] was “very low solubility”.
